Experimental data reported in patent US6955806B2, “Ionene polymers and their use as antimicrobial agents” (Genzyme Corporation, priority 2001, dated 2005).
Read-outs that look alike come from different tables or passages of the source.

Details: mouse, in vivo
Procedure: In vivo toxicity of the polymer of Formula II was assayed in mice. Groups of 5 animals were dosed twice daily for 5 days by oral gavage at a dose of 10, 100, or 500 mg/kg body weight. Animals were assessed daily, and deaths were recorded. The dose at which ½ the animals died was considered the LD50.

Poly(4,4′-trimethylenebis(1-methylpiperidinium)-alt-1,8-octane) [Formula II]
tolerability in 5-day oral toxicity study (10 mg/kg/day): well tolerated | tolerability in 5-day oral toxicity study (100 mg/kg/day): moderate toxicity was evident
